Patent publication EP1616965A1, “Methods and assays for detecting guanylate cyclase activity” (AXXAM S.r.l., priority 2004, dated 2006)

Biological target: T1, soluble guanylate cyclase (sGC) (Rattus norvegicus, UniProt P19686+P20595, C541D/E473K/R592Q)
T1 construct: To reconstitute the full length mutated gene, these three discrete fragments were used as template in a final PCR reaction; expressed in transfected cells
T1 sequence (P19686 1-690 R592Q): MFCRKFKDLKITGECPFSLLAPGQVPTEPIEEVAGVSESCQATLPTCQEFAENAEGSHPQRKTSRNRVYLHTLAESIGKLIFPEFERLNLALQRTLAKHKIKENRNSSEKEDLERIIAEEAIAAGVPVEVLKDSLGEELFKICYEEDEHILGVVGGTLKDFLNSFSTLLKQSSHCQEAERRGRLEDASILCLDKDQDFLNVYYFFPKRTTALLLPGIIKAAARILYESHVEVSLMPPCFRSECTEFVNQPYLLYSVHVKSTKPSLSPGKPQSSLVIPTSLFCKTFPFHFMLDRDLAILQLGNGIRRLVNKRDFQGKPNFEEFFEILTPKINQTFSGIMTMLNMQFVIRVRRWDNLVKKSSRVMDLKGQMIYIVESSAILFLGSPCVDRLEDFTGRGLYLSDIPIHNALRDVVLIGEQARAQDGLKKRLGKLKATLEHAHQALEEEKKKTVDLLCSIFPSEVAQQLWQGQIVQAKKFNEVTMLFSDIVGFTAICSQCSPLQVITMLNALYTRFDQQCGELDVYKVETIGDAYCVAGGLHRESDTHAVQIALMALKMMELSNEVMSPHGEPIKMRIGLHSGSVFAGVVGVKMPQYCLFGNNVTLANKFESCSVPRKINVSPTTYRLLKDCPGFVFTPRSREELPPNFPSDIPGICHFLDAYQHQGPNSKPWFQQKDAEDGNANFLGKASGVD
T1 sequence (P20595 1-619 E473K/C541D): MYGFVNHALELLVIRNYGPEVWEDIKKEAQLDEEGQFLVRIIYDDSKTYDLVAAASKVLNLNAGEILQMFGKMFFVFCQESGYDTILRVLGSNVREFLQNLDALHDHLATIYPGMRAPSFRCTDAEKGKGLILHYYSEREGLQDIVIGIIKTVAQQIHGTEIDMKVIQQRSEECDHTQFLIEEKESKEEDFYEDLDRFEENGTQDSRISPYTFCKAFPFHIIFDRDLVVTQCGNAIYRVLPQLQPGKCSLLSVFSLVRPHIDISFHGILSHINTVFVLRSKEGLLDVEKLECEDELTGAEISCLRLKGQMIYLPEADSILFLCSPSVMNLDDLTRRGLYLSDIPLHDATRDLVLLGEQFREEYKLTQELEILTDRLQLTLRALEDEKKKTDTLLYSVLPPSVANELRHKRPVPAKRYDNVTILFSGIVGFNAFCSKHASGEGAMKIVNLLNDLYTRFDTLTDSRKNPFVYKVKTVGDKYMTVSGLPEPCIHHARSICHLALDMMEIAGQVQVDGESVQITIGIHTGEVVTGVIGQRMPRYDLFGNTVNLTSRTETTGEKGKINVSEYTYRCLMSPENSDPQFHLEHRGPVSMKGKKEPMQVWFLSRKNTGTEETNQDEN
Experiment: MRE-CRE luciferase reporter assay in CHO cAMPL cells expressing mutated sGC (clone 7)
Format: cell-based
Details: dose response of BAY41-2272 in the absence or presence of ODQ (300 nM, 3 µM, 30 µM); 384 wp, Tyrode buffer
Description: According to the invention, the sGC enzymatic activity is determined by coupling a sGC enzyme with modified substrate specificity to a cAMP sensitive reporter construct in a suitable eukaryotic or prokaryotic cell, whereby the activity of the reporter gene is indicative of the sGC enzymatic activity. The sGC enzyme with modified substrate specificity is able to catalyze the conversion of ATP into cyclic AMP without affecting the allosteric regulation of the natural enzyme. The sGC substrate specificity can be modified by replacing the amino acid residues involved in nucleotide binding with the corresponding residues present in the active site of adenylate cyclase. For example, when rat sGC is used, the amino acids Arg592 of α subunit, Glu473 and Cys541 of β subunit are respectively changed into Gln, Lys and Asp, to confer ATP substrate-specificity. More details on the modification of sGC substrate specificity can be found in Sunahara et al. (1998), which is hereby incorporated by reference.
Rat wild type sGC […] and β1 subunits were amplified from brain cDNA by RT-PCR and used as templates for site directed mutagenesis. […]
1500 c/w were seeded in 384 wp. […] Luciferase activity was detected after injection of 25ul Bright-GloTM (Promega) at the CCD camera (60" measurement, high sensitivity). […]

## O=c1onc2cnc3ccccc3n12 [ODQ]
  Inhibition of BAY41-2272 activity by ODQ: BAY41-2272 stimulating effect on sGC is competed by ODQ
